In PubChem BioAssay (NCI):
Values joined by “and” are separate entries in the source; they are usually repeats but may differ in a detail not shown here. Identical values can stand only once.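 Step 1: Grow cells in 96-well plates. Step 2: Expose to compound for 48 hours at 5 concentrations. Step 3: Interpolate endpoints linearly; if unreached, use highest concentration. Abbreviation: GI50, concentration required for 50% inhibition of growth. TGI denotes the concentration required for complete inhibition of growth.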

How the values were obtained:
Test in all cases: growth of human tumour cells (NCI), 48 h
[1] = system: BT-549 breast
[2] = system: HCT-15 colon
[3] = system: HOP-92 NSCLC
[4] = system: LOX IMVI melanoma
[5] = system: MDA-MB-435
[6] = system: SF-268 CNS
[7] = system: SN12C renal
[8] = system: SNB-19 CNS
[9] = system: TK-10 renal
[10] = system: UO-31 renal

Row | Structure (SMILES) | GI50 [1] | TGI [1] | GI50 [2] [µM] | TGI [2] | GI50 [3] [µM] | TGI [3] | GI50 [4] | TGI [4] | GI50 [5] | TGI [5] | GI50 [6] [µM] | TGI [6] [µM] | GI50 [7] [µM] | TGI [7] | GI50 [8] [µM] | TGI [8] | GI50 [9] | TGI [9] | GI50 [10] | TGI [10]
1 | CN(C)CCCn1c2c(c3cc4c(cc3c1=O)OCO4)C(=O)c1ccccc1-2 | 5.52 µM | 29 µM | < 0.0275 | 4.35 µM | 0.713 | 6.37 µM | 0.0635 µM | 0.557 µM | 1.49 µM | 5.81 µM | 13.9 | > 44.4 | 0.203 | 3.16 µM | 2.84 | > 100 µM | 3.42 µM | 17.9 µM | 4.19 µM | 39.9 µM
2 | COCCOCCOCCOCCOC(=O)OC[n+]1ccc(NC(=NCCCCCCOc2ccc(Cl)cc2)NC#N)cc1 | 5.71 µM | 20.5 µM | < 0.01 | 17.9 µM | 1.7 | 16.3 µM | 2.57 µM | 20.6 µM | < 0.01 µM | 14.7 µM | 11.9 | 26.9 | < 0.01 | 15.7 µM | 0.199 | 18.3 µM | 13.2 µM | 26.4 µM | 11.3 µM | 24.1 µM
3 | COc1ccc2c(c1)C(=O)c1c-2c(=O)n(CCCN(C)C)c2cc(OC)c(OC)cc12 | 83.6 µM | > 100 µM | 12.6 | 27.4 µM | > 100 | > 100 µM | 1.6 µM | 15.6 µM | 11.3 µM | 23.3 µM | 0.427 | 15.2 | 2.18 | 16.6 µM | 3.3 | 20.6 µM | 15.5 µM | 29.3 µM | 3.4 µM | 16.1 µM
4 | CC1CCN(CCOc2ccc(CNc3ccc4nc(CCC5CCCCC5)[nH]c4c3)cc2)CC1 | 1.52 µM | 2.91 µM | 1.43 | 3.03 µM | 0.643 | 2.23 µM | 1.67 µM | 3.1 µM | 1.64 µM | 3.07 µM | 1.68 | 3.44 | 1.54 | 2.95 µM | 2.03 | 4.2 µM | 2.24 µM | 4.92 µM | 1.38 µM | 2.67 µM
5 | C#CCNC(=O)NC(CCCCNC(=O)OCc1ccccc1)C(=O)OCc1ccccc1 (centres undefined) | – | > 100 µM | – | > 100 µM | – | 54 µM | – | > 88.4 µM | – | 57.1 µM | – | > 100 | – | > 81.1 µM | – | > 100 µM | – | > 93 µM | – | 44.6 µM
6 | O=S(=O)(O)c1ccc2cc3nn(-c4ccc(/C=C/c5ccc(-n6nc7cc8ccc(S(=O)(=O)O)cc8cc7n6)cc5S(=O)(=O)O)c(S(=O)(=O)O)c4)nc3cc2c1 | > 100 µM | > 100 µM | 6.21 | > 100 µM | 88.7 | > 100 µM | 16.3 µM | > 100 µM | > 100 µM | > 100 µM | > 100 | > 100 | 67.8 | > 100 µM | > 100 | > 100 µM | 10.6 µM | > 100 µM | 26.1 µM | > 100 µM
7 | COc1ccc(/C=N\Nc2nc(SCC(C)C)nc(-c3ccc(OC)cc3)c2C#N)cc1 | 15.7 µM | 52.5 µM | 11.7 | > 100 µM | 2.39 | 14.1 µM | 18.2 µM | 75.2 µM | 17.9 µM | > 100 µM | 11.7 | 67.7 | 2.1 | 20.4 µM | 6.81 | 33.3 µM | 2.02 µM | 8.62 µM | 1.5 µM | 3.73 µM
8 | CCOC(=O)C(Cc1ccc(N(CCCl)CCCl)cc1)NC(=O)C(Cc1ccccc1)NC(C)=O (centres undefined) | – | > 0.798 µM | – | > 1 µM | – | > 1 µM | – | > 0.386 µM | – | > 1 µM | – | > 0.288 | – | > 0.296 µM | – | > 0.578 µM | – | > 0.325 µM | – | > 0.328 µM
9 | COc1cc2c(cc1NC(=O)C(Cl)Cl)-c1ccc(NC(=O)C(Cl)Cl)cc1C2 | 1.74 µM | 13.3 µM | 0.354 | 1.94 µM | 1.15 | 3.54 µM | 5.43 µM | 18.1 µM | 0.378 µM | 1.12 µM | 0.384 | 1.94 | 4.67 | 19.6 µM | 0.461 | 2.06 µM | 0.687 µM | 2.53 µM | 0.73 µM | 2.75 µM
10 | COc1ccc2nc3cc(Cl)ccc3c(N3CCN(c4ccnc(N5CCN(C)CC5)n4)CC3)c2c1 | 3.16 µM | 13.4 µM | 1.6 | 3.21 µM | 1.59 | 3.36 µM | 1.89 µM | 3.45 µM | 1.79 µM | 3.66 µM | 1.99 | 3.89 | 2.84 | 8.37 µM | 2.23 | 5.44 µM | 1.76 µM | 3.2 µM | 1.77 µM | 3.41 µM
11 | O=c1[nH]c2ccccc2n1C1CCN(CCCC(c2ccc(F)cc2)c2ccc(F)cc2)CC1 | 1.72 µM and 8.47 µM | 3.31 µM and 23.6 µM | 1.77 | 3.95 µM and 19.7 µM | 0.252 | 1.71 µM and 14 µM | 1.61 µM and 2.55 µM | 3.02 µM and 6.62 µM | 1.54 µM and 4.49 µM | 3.06 µM and 11.5 µM | – | 28.9 | 1.5 | 2.97 µM and 23.4 µM | 1.67 | 3.29 µM and 28.8 µM | 1.54 µM and 6.93 µM | 2.95 µM and 16.1 µM | 1.11 µM and 3.56 µM | 2.44 µM and 18.1 µM
12 | O=C1/C(=C/c2ccccc2[N+](=O)[O-])COc2ccc(O)cc21 | 2.3 µM | 5.23 µM | 0.417 | 2.06 µM | 2.75 | 12.5 µM | 1.05 µM | 2.27 µM | 2.18 µM | 5.96 µM | 2.4 | 7.97 | 1.6 | 5.55 µM | 4.15 | 16.6 µM | 3.44 µM | 13.9 µM | 1.02 µM | 2.63 µM
13 | CSC1=Nc2c(c(C)c(-c3ccccc3)n2COC(CO)CO)C2=NC(=O)CN12 | > 100 µM | > 100 µM | > 100 | > 100 µM | > 100 | > 100 µM | > 100 µM | > 100 µM | > 100 µM | > 100 µM | > 100 | > 100 | > 100 | > 100 µM | > 100 | > 100 µM | > 100 µM | > 100 µM | > 100 µM | > 100 µM
